The results in this text go back to US11319299B2, “Substituted carboxamides as inhibitors of WDR5 protein-protein binding” (PROPELLON THERAPEUTICS INC., priority 2016, dated 2022).

For one experiment, the target named is WDR5 (Homo sapiens (Human), UniProt P61964). As to the kind of experiment: Surface Plasmon Resonance (SPR) assay, KD and residence time. Type of experiment: binding. The following applies: surface plasmon resonance (SPR) assay; read-out: WDR5 binding affinity (KD). In general terms: In SPR one partner is held on a chip, and binding of the other changes the refractive index at the surface.
As a reminder, the Kd is the free concentration of one partner at which half of the binding sites on the other are occupied at equilibrium, for simple one-to-one binding. Regarding `C[C@@H]1CN(c2cc(F)c(C3=CCCN(C(=O)OC(C)(C)C)C3)cc2NC(=O)c2c[nH]c(=O)cc2C(F)(F)F)C[C@H](C)N1C` [Example 322, tert-butyl 5-[2-fluoro-5-[[6-oxo-4-(trifluoromethyl)-1H-pyridine-3-carbonyl]amino]-4-[(3R,5S)-3,4,5-trimethylpiperazin-1-yl]phenyl]-3,6-dihydro-2H-pyridine-1-carboxylate], the Kd stood at 1.36 nM. Same read-out and setting: the result for `CC(C)Oc1ncc(-c2cc(NC(=O)c3c[nH]c(=O)cc3C(F)(F)F)c(N3C[C@@H](C)N(C)[C@@H](C)C3)cc2F)cn1` [Example 130, N-[4-fluoro-5-(2-propan-2-yloxypyrimidin-5-yl)-2-[(3R,5S)-3,4,5-trimethylpiperazin-1-yl]phenyl]-6-oxo-4-(trifluoromethyl)-1H-pyridine-3-carboxamide] reads 0.656 nM; that for `C[C@@H]1CN(c2cc(F)c(-c3cnc(N4CCOC[C@H]4C)nc3)cc2NC(=O)c2c[nH]c(=O)cc2C(F)(F)F)CCN1C` (stereo in doubt) [Example 337, N-[4-fluoro-2-[(3R)-3,4-dimethylpiperazin-1-yl]-5-[2-[(3R)-3-methylmorpholin-4-yl]pyrimidin-5-yl]phenyl]-6-oxo-4-(trifluoromethyl)-1H-pyridine-3-carboxamide], 1.16 nM; that for `COc1cnc(N2CCC=C(c3cc(NC(=O)c4c[nH]c(=O)cc4C(F)(F)F)c(N4C[C@@H](C)N(C)[C@@H](C)C4)cc3F)C2)nc1` [Example 375, N-[4-fluoro-5-[1-(5-methoxypyrimidin-2-yl)-3,6-dihydro-2H-pyridin-5-yl]-2-[(3R,5S)-3,4,5-trimethylpiperazin-1-yl]phenyl]-6-oxo-4-(trifluoromethyl)-1H-pyridine-3-carboxamide], 0.688 nM. For `C[C@@H]1CN(c2cc(F)c(-c3cnc(N4CCOCC4)nc3)cc2NC(=O)c2ccccc2)C[C@H](C)N1C` [Example 74, N-[4-fluoro-5-(2-morpholin-4-ylpyrimidin-5-yl)-2-[(3R,5S)-3,4,5-trimethylpiperazin-1-yl]phenyl]benzamide], the Kd was 253 nM.

Regarding `COc1cc(F)cc(C(=O)Nc2cc(-c3cnc(N4CCOCC4)nc3)c(F)cc2N2C[C@@H](C)N(C)[C@@H](C)C2)c1` [Example 190, 3-fluoro-N-[4-fluoro-5-(2-morpholin-4-ylpyrimidin-5-yl)-2-[(3R,5S)-3,4,5-trimethylpiperazin-1-yl]phenyl]-5-methoxybenzamide], the dissociation constant Kd turned out to be 14.7 nM. Same read-out and setting: the value for `C[C@@H]1CN(c2cc(F)c(C3CCN(C(=O)C(C)(C)C)CC3)cc2NC(=O)c2c[nH]c(=O)cc2C(F)(F)F)C[C@H](C)N1C` [Example 244, N-[5-[1-(2,2-dimethylpropanoyl)piperidin-4-yl]-4-fluoro-2-[(3R,5S)-3,4,5-trimethylpiperazin-1-yl]phenyl]-6-oxo-4-(trifluoromethyl)-1H-pyridine-3-carboxamide] was 1.97 nM; that for `C[C@@H]1CN(c2cc(F)c(C3=CCN(C(=O)N4CCN(C)CC4)CC3)cc2NC(=O)c2c[nH]c(=O)cc2C(F)(F)F)C[C@H](C)N1C` [Example 287, N-[4-fluoro-5-[1-(4-methylpiperazine-1-carbonyl)-3,6-dihydro-2H-pyridin-4-yl]-2-[(3R,5S)-3,4,5-trimethylpiperazin-1-yl]phenyl]-6-oxo-4-(trifluoromethyl)-1H-pyridine-3-carboxamide] was 1.39 nM. Same read-out and setting: the result for `COc1cc(Cl)cc(C(=O)Nc2cc(-c3cnc(N4CCOCC4)nc3)c(F)cc2N2C[C@@H](C)N(C)[C@@H](C)C2)c1` [Example 265, 3-chloro-N-[4-fluoro-5-(2-morpholin-4-ylpyrimidin-5-yl)-2-[(3R,5S)-3,4,5-trimethylpiperazin-1-yl]phenyl]-5-methoxybenzamide] reads 28.3 nM.

Consider `C[C@@H]1CN(c2cc(F)c(-c3cnc(N4CCOCC4)nc3)cc2NC(=O)c2n[nH]c(=O)cc2C(F)(F)F)C[C@H](C)N1C` [Example 77, N-[4-fluoro-5-(2-morpholin-4-ylpyrimidin-5-yl)-2-[(3R,5S)-3,4,5-trimethylpiperazin-1-yl]phenyl]-6-oxo-4-(trifluoromethyl)-1H-pyridazine-3-carboxamide], for which the dissociation constant (Kd) was found to be 4.43 nM. On the same count and under the same terms, the value for `C[C@@H]1CN(c2cc(F)c(-c3cnc(N4CCOCC4)nc3)cc2NC(=O)c2cc(O)cc(C(F)(F)F)c2)C[C@H](C)N1C` [Example 280, N-[4-fluoro-5-(2-morpholin-4-ylpyrimidin-5-yl)-2-[(3R,5S)-3,4,5-trimethylpiperazin-1-yl]phenyl]-3-hydroxy-5-(trifluoromethyl)benzamide] was 3.12 nM; that for `CC1CN(c2cc(F)c(-c3cccc(CN(C)C4COC4)c3)cc2NC(=O)c2c[nH]c(=O)cc2C(F)(F)F)CCN1C` (stereo in doubt) [Example 214, N-[4-fluoro-5-[3-[[methyl(oxetan-3-yl)amino]methyl]phenyl]-2-[(3R)-3,4-dimethylpiperazin-1-yl]phenyl]-6-oxo-4-(trifluoromethyl)-1H-pyridine-3-carboxamide] was 2.15 nM. Still for that read-out and setting: the value for `CC(C)COC(=O)N1CC=C(c2cc(NC(=O)c3c[nH]c(=O)cc3C(F)(F)F)c(N3C[C@@H](C)N(C)[C@@H](C)C3)cc2F)CC1` [Example 254, 2-methylpropyl 4-[2-fluoro-5-[[6-oxo-4-(trifluoromethyl)-1H-pyridine-3-carbonyl]amino]-4-[(3R,5S)-3,4,5-trimethylpiperazin-1-yl]phenyl]-3,6-dihydro-2H-pyridine-1-carboxylate] was 3.34 nM; that for `C[C@@H]1CN(c2cc(F)c(-c3ccc(N4CCCC4)cc3)cc2NC(=O)c2cn(C)c(=O)cc2C(F)(F)F)C[C@H](C)N1C` [Example 227, N-[4-fluoro-5-(4-pyrrolidin-1-ylphenyl)-2-[(3R,5S)-3,4,5-trimethylpiperazin-1-yl]phenyl]-1-methyl-6-oxo-4-(trifluoromethyl)pyridine-3-carboxamide] was 9.14 nM.

Staying with this experiment, now noted: surface plasmon resonance (SPR); read-out: WDR5 binding affinity (KD).
Consider `CC1CN(c2cc(F)c(-c3ccc(F)c(C(N)=O)c3)cc2NC(=O)c2ccc(F)cc2C(F)(F)F)CCN1C` (stereo in doubt) [Example 554, 2-fluoro-5-[2-fluoro-5-[[4-fluoro-2-(trifluoromethyl)benzoyl]amino]-4-[(3R)-3,4-dimethylpiperazin-1-yl]phenyl]benzamide], for which the equilibrium dissociation constant (Kd) amounted to 5.3 nM. Still for that read-out and setting: the result for `C[C@@H]1CN(c2cc(F)c(C3=CCCN(c4ncco4)C3)cc2NC(=O)c2c[nH]c(=O)cc2C(F)(F)F)C[C@H](C)N1C` [Example 643, N-[4-fluoro-5-[1-(1,3-oxazol-2-yl)-3,6-dihydro-2H-pyridin-5-yl]-2-[(3R5S)-3,4,5-trimethylpiperazin-1-yl]phenyl]-6-oxo-4-(trifluoromethyl)-H-pyridine-3-carboxamide] reads 1.26 nM.

On to `C[C@@H]1CN(c2cc(F)c(C3=CCN(c4ncc(CN5CCN(C)CC5)cn4)CC3)cc2NC(=O)c2c[nH]c(=O)cc2C(F)(F)F)C[C@H](C)N1C` [Example 407, N-[4-fluoro-5-[1-[5-[(4-methylpiperazin-1-yl)methyl]pyrimidin-2-yl]-3,6-dihydro-2H-pyridin-4-yl]-2-[(3R,5S)-3,4,5-trimethylpiperazin-1-yl]phenyl]-6-oxo-4-(trifluoromethyl)-1H-pyridine-3-carboxamide], for which the Kd was 0.231 nM. On the same count and under the same terms, the value for `C[C@@H]1CN(c2cc(F)c(-c3nc(C(=O)N(C)C4CCCCC4)cs3)cc2NC(=O)c2c[nH]c(=O)cc2C(F)(F)F)C[C@H](C)N1C` [Example 485, N-cyclohexyl-2-[2-fluoro-5-[[6-oxo-4-(trifluoromethyl)-1H-pyridine-3-carbonyl]amino]-4-[(3R,5S)-3,4,5-trimethylpiperazin-1-yl]phenyl]-N-methyl-1,3-thiazole-4-carboxamide] was 2.21 nM. On the same count and under the same terms, the result for `Cc1cc(C(=O)Nc2cc(-c3cnc(N4CCOC(C)C4)nc3)c(F)cc2N2C[C@@H](C)N(C)[C@@H](C)C2)cc(C)c1F` (stereo in doubt) [Example 611, 4-fluoro-N-[4-fluoro-5-[2-[(2R)-2-methylmorpholin-4-yl]pyrimidin-5-yl]-2-[(3S,5R)-3,4,5-trimethylpiperazin-1-yl]phenyl]-3,5-dimethylbenzamide] reads 1.55 nM. Same read-out and setting: the result for `C[C@@H]1CN(c2cc(F)c(-c3csc(C(=O)N4CCOCC4)n3)cc2NC(=O)c2cn(C)c(=O)cc2C(F)(F)F)C[C@H](C)N1C` [Example 527, N-[4-fluoro-5-[2-(morpholine-4-carbonyl)-1,3-thiazol-4-yl]-2-[(3R,5S)-3,4,5-trimethylpiperazin-1-yl]phenyl]-1-methyl-6-oxo-4-(trifluoromethyl)pyridine-3-carboxamide] reads 5.66 nM; that for `COc1ccc(C(=O)N2CC=C(c3cc(NC(=O)c4c[nH]c(=O)cc4C(F)(F)F)c(N4C[C@@H](C)N(C)[C@@H](C)C4)cc3F)CC2)cc1` [Example 565, N-[4-fluoro-5-[1-(4-methoxybenzoyl)-3,6-dihydro-2H-pyridin-4-yl]-2-[(3R,5S)-3,4,5-trimethylpiperazin-1-yl]phenyl]-6-oxo-4-(trifluoromethyl)-1H-pyridine-3-carboxamide], 0.943 nM; that for `CCN(CC)[C@@H]1CCN(c2cc(F)c(-c3cnc(N4CCOCC4)nc3)cc2NC(=O)c2cn(C)c(=O)cc2C(F)(F)F)C1` [Example 428, N-[4-fluoro-5-(2-morpholin-4-ylpyrimidin-5-yl)-2-[(3R)-3-(diethylamino)pyrrolidin-1-yl]phenyl]-1-methyl-6-oxo-4-(trifluoromethyl)pyridine-3-carboxamide], 145 nM. For `COc1cc(N2CC=C(c3cc(NC(=O)c4c[nH]c(=O)cc4C(F)F)c(N4C[C@@H](C)N(C)[C@@H](C)C4)cc3F)CC2)ncn1` [Example 647, 4-(difluoromethyl)-N-[4-fluoro-5-[1-(6-methoxypyrimidin-4-yl)-3,6-dihydro-2H-pyridin-4-yl]-2-[(3R,5S)-3,4,5-trimethylpiperazin-1-yl]phenyl]-6-oxo-1H-pyridine-3-carboxamide], the Kd was found to be 1.59 nM.
